Holding throughout (assay type): cell-based
Assay [1] has as its system Aspergillus niger. Description: MIC, RPMI medium. Particulars: MIC banded into grades; for MIC: Aspergillus niger, read-out: MIC grade, A. niger. Summed up: (§1)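 MIC taken as lowest drug level inhibiting growth by >80% relative to drug-free wells, read as OD at 485 nm after 24-48 h at 35° C. Organisms at 1−2×10^4 cfu/mL in RPMI (2% glucose, 0.135 M MOPS, pH 7.0) exposed to doubling dilutions spanning 50-0.05 mg/L.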

In assay [2] the test system is Aspergillus terreus AT49. Description: MIC, RPMI medium. Particulars: for MIC grade, A. terreus 49: MIC banded into grades; for MIC: Aspergillus terreus, AT49, MIC banded into grades, read-out: MIC grade, A. terreus 49. Summed up:
as §1

Assay [3] has as its system Aspergillus fumigatus AF210. The experiment in a line: MIC, RPMI medium. Particulars: for MIC grade, A. fumigatus 210: MIC banded into grades; for MIC: Aspergillus fumigatus, AF210, MIC banded into grades, read-out: MIC grade, A. fumigatus 210. The method, boiled down:
as §1

In assay [4] the test system is Aspergillus fumigatus AF293. Description: MIC, RPMI medium. Particulars: for MIC grade, A. fumigatus: MIC banded into grades; for MIC: Aspergillus fumigatus, AF293, MIC banded into grades, read-out: MIC grade, A. fumigatus. The method, boiled down:
as §1

In assay [5] the test system is Aspergillus flavus. Description: MIC, RPMI medium. Particulars: MIC banded into grades; for MIC: Aspergillus flavus, read-out: MIC grade, A. flavus. Summed up: as §1
For assay [6], the system named is Aspergillus terreus AT4. The experiment in a line: MIC, RPMI medium. Particulars: for MIC grade, A. terreus: MIC banded into grades; for MIC: Aspergillus terreus, AT4, MIC banded into grades, read-out: MIC grade, A. terreus. Summed up: as §1
The test system of assay [7] is Aspergillus niger. Description: MIC, YAG medium. Particulars: 24 h at 35° C, MIC banded into grades; for MIC: Aspergillus niger, read-out: MIC grade, A. niger. The method, boiled down:
(§2)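 Spores from 5-day Sabouraud agar cultures were suspended in YAG medium (1% glucose, 1% ammonium chloride, 0.5% yeast extract) at final inocula of 1−2×10^4 cfu/mL against doubling dilutions of compound (50-0.05 mg/L; 0.5-0.0005 mg/L on repeat). Plates were incubated 24 h at 35° C. MIC was the lowest concentration giving >70% growth inhibition by OD485 versus drug-free control.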

For assay [8], the system named is Aspergillus terreus AT49. The experiment in a line: MIC, YAG medium. Particulars: 24 h at 35° C, MIC banded into grades; for MIC: Aspergillus terreus, read-out: MIC grade, A. terreus 49. Summed up: as §2
Assay [9] deals with Aspergillus fumigatus AF210. The experiment in a line: MIC, YAG medium. Particulars: 24 h at 35° C, MIC banded into grades; for MIC: Aspergillus fumigatus, read-out: MIC grade, A. fumigatus 210. Summed up: as §2
The subject of assay [10] is Aspergillus fumigatus AF293. Description: MIC, YAG medium. Particulars: 24 h at 35° C, MIC banded into grades; for MIC: Aspergillus fumigatus, read-out: MIC grade, A. fumigatus. Summed up: as §2
For assay [11], the system named is Aspergillus flavus. Description: MIC, YAG medium. Particulars: 24 h at 35° C, MIC banded into grades; for MIC: Aspergillus flavus, 24 h, read-out: MIC grade, A. flavus. Summed up:
as §2

Assay [12] relates to Aspergillus terreus AT4. Description: MIC, YAG medium. Particulars: 24 h at 35° C, MIC banded into grades; for MIC: Aspergillus terreus, read-out: MIC grade, A. terreus. Summed up:
as §2

Here are results for nine compounds from patent publication US8993574B2, “Pyrrole antifungal agents” (F2G Ltd, priority 2008, dated 2015).

≈ marks a conversion by molar mass, not a printed value.

Consider `CCOCCCn1c(C)cc(-c2ccccc2)c1C(=O)C(=O)Nc1ccc(N2CCN(c3cc(C)cc(C)n3)CC2)cc1` [Example 136, N-{4-[4-(4,6-Dimethyl-pyridin-2-yl)-piperazin-1-yl]-phenyl}-2-[1-(3-ethoxy-propyl)-5-methy-3-phenyl-1H-pyrrol-2-yl]-2-oxo-acetamide], for which the results for the “MIC grade, A. niger” value in the assay on Aspergillus niger [1] and in the assay with Aspergillus niger [7] were 2 (A grade of 2 represents an MIC of from 1 to 10 mg/L) and 3 (A grade of 3 represents an MIC of less than 1 mg/L), respectively. The entries for the “MIC grade, A. terreus 49” value in the assay on Aspergillus terreus AT49 [2] and in the assay with Aspergillus terreus AT49 [8] were 2 (A grade of 2 represents an MIC of from 1 to 10 mg/L) and 3 (A grade of 3 represents an MIC of less than 1 mg/L), respectively. In addition, the “MIC grade, A. fumigatus 210” value in assay [3] is given as 2 (A grade of 2 represents an MIC of from 1 to 10 mg/L); in assay [9] it was 3 (A grade of 3 represents an MIC of less than 1 mg/L). Besides, the entries for the “MIC grade, A. fumigatus” value in assay [4] and in assay [10] were 2 (A grade of 2 represents an MIC of from 1 to 10 mg/L) and 3 (A grade of 3 represents an MIC of less than 1 mg/L), respectively. The figures for the “MIC grade, A. flavus” value against Aspergillus flavus [5] and in the assay on Aspergillus flavus [11] were 2 (A grade of 2 represents an MIC of from 1 to 10 mg/L) and 3 (A grade of 3 represents an MIC of less than 1 mg/L), respectively. For the same compound, the “MIC grade, A. terreus” value in the assay on Aspergillus terreus AT4 [6] and in the assay with Aspergillus terreus AT4 [12] was 2 (A grade of 2 represents an MIC of from 1 to 10 mg/L) in each case.

For orientation: MIC means the lowest concentration that inhibits growth of the organism. Take `Cc1cc(C)nc(N2CCN(c3ccc(NC(=O)C(=O)c4c(C5CCOCC5)cc(C)n4C)cc3)CC2)c1` [Example 15, N-{4-[4-(4,6-Dimethyl-pyridin-2-yl)-piperazin-1-yl]-phenyl}-2-[1,5-dimethyl-3-(tetrahydro-pyran-4-yl)-1H-pyrrol-2-yl]-2-oxo-acetamide]: the MIC (in the assay on Aspergillus niger [1]; in the assay with Aspergillus terreus AT49 [2]; in [3]; in assay [4]; in the assay with Aspergillus flavus [5]; in the assay with Aspergillus terreus AT4 [6]) was under 1 µg/mL each time. For the same compound, the MIC (in the assay with Aspergillus niger [7]; in the assay on Aspergillus terreus AT49 [8]; in assay [9]; in [10]; in the assay on Aspergillus flavus [11]; in the assay on Aspergillus terreus AT4 [12]) was under 1 µg/mL each time.

Take `COCCc1cc(C)n(-c2ccccc2)c1C(=O)C(=O)Nc1ccc(N2CCN(c3cc(C)cc(C)n3)CC2)cc1` [Example 80, N-{4-[4-(4,6-Dimethyl-pyridin-2-yl)-piperazin-1-yl]-phenyl}-2-[3-(2-methoxy-ethyl)-5-methyl-1-phenyl-1H-pyrrol-2-yl]-2-oxo-acetamide]: the MIC (in the assay on Aspergillus niger [1]; in the assay on Aspergillus terreus AT49 [2]; in assay [3]; in assay [4]; in the assay on Aspergillus flavus [5]; with Aspergillus terreus AT4 [6]) was over 10 µg/mL each time. Moreover, the MIC (in the assay with Aspergillus niger [7]; with Aspergillus terreus AT49 [8]; in assay [9]; in [10]; in the assay on Aspergillus flavus [11]; with Aspergillus terreus AT4 [12]) was over 10 µg/mL throughout.

Regarding `Cc1cc(C)nc(N2CCN(c3ccc(NC(=O)C(=O)c4c(-c5ccccc5)cc(C)n4Cc4coc(C)n4)cc3)CC2)c1` [Example 146, N-{4-[4-(4,6-Dimethyl-pyridin-2-yl)-piperazin-1-yl]-phenyl}-2-[5-methyl-1-(2-methyl-oxazol-4-ylmethyl)-3-phenyl-1H-pyrrol-2-yl]-2-oxo-acetamide], the MIC in the assay with Aspergillus niger [1] is 1 to 10 µg/mL (≈ 1.7 to 17 µM); in the assay with Aspergillus terreus AT49 [2], over 10 µg/mL; in [3], over 10 µg/mL; in assay [4], under 1 µg/mL; in the assay with Aspergillus flavus [5] it was over 10 µg/mL; with Aspergillus terreus AT4 [6], over 10 µg/mL. Besides, the MIC was 1 to 10 µg/mL (≈ 1.7 to 17 µM) in the assay with Aspergillus niger [7]; 1 to 10 µg/mL (≈ 1.7 to 17 µM) in the assay on Aspergillus terreus AT49 [8]; under 1 µg/mL in assay [9]; under 1 µg/mL in assay [10]; 1 to 10 µg/mL (≈ 1.7 to 17 µM) in the assay with Aspergillus flavus [11]; 1 to 10 µg/mL (≈ 1.7 to 17 µM) in the assay on Aspergillus terreus AT4 [12].

On to `Cc1cc(C)nc(N2CCN(c3ccc(NC(=O)C(=O)c4c(-c5ccccc5)ccn4CC(N)=O)cc3)CC2)c1` [Example 75, 2-(1-Carbamoylmethyl-3-phenyl-1H-pyrrol-2-yl)-N-{4-[4-(4,6-dimethyl-pyridin-2-yl)-piperazin-1-yl]-phenyl}-2-oxo-acetamide], for which the MIC (with Aspergillus niger [1]; in the assay on Aspergillus terreus AT49 [2]; in [3]; in assay [4]; in the assay with Aspergillus flavus [5]; in the assay with Aspergillus terreus AT4 [6]) was over 10 µg/mL in each case. For the same compound, the MIC (in the assay on Aspergillus niger [7]; in the assay with Aspergillus terreus AT49 [8]; in assay [9]; in assay [10]; with Aspergillus flavus [11]; with Aspergillus terreus AT4 [12]) was over 10 µg/mL each time.

Take `COCc1cc(-c2ccccc2)c(C(=O)C(=O)Nc2ccc(N3CCN(c4cc(C)cc(C)n4)CC3)cc2)n1C` [Example 130, N-{4-[4-(4,6-Dimethyl-pyridin-2-yl)-piperazin-1-yl]-phenyl}-2-(5-methoxymethyl-1-methyl-3-phenyl-1H-pyrrol-2-yl)-2-oxo-acetamide]: the MIC (in the assay on Aspergillus niger [1]; in the assay with Aspergillus terreus AT49 [2]; in assay [3]; in assay [4]; in the assay on Aspergillus flavus [5]; in the assay with Aspergillus terreus AT4 [6]) was under 1 µg/mL in each case. For the same compound, the MIC (with Aspergillus niger [7]; in the assay with Aspergillus terreus AT49 [8]; in [9]; in assay [10]; with Aspergillus flavus [11]; with Aspergillus terreus AT4 [12]) was under 1 µg/mL in each case.

As for `Cc1cc(C)nc(N2CCN(c3ccc(NC(=O)C(=O)c4cc(-c5ccccc5)cn4C)cc3)CC2)c1` [Example 46, N-{4-[4-(4,6-Dimethyl-pyridin-2-yl)-piperazin-1-yl]-phenyl}-2-(1-methyl-4-phenyl-1H-pyrrol-2-yl)-2-oxo-acetamide], the MIC in the assay with Aspergillus niger [1] was over 10 µg/mL; in the assay on Aspergillus terreus AT49 [2], 1 to 10 µg/mL (≈ 2.03 to 20.3 µM); in assay [3], over 10 µg/mL; in assay [4], over 10 µg/mL; in the assay on Aspergillus flavus [5] it was over 10 µg/mL; in the assay with Aspergillus terreus AT4 [6], 1 to 10 µg/mL (≈ 2.03 to 20.3 µM). The MIC was over 10 µg/mL in the assay with Aspergillus niger [7]; under 1 µg/mL with Aspergillus terreus AT49 [8]; under 1 µg/mL in assay [9]; 1 to 10 µg/mL (≈ 2.03 to 20.3 µM) in assay [10]; under 1 µg/mL in the assay on Aspergillus flavus [11]; over 10 µg/mL in the assay with Aspergillus terreus AT4 [12].

With `COC(=O)Cn1c(C)cc(-c2ccccc2)c1C(=O)C(=O)Nc1ccc(N2CCN(c3cc(C)cc(C)n3)CC2)cc1F` [Example 111, (2-{4-[4-(4,6-Dimethyl-pyridin-2-yl)-piperazin-1-yl]-2-fluoro-phenylaminooxalyl}-5-methyl-3-phenyl-pyrrol-1-yl)-acetic acid methyl ester], the “MIC grade, A. niger” value in the assay with Aspergillus niger [1] and in the assay on Aspergillus niger [7] was 3 (A grade of 3 represents an MIC of less than 1 mg/L) throughout. For the same compound, the figures for the “MIC grade, A. terreus 49” value against Aspergillus terreus AT49 [2] and in the assay with Aspergillus terreus AT49 [8] were 2 (A grade of 2 represents an MIC of from 1 to 10 mg/L) and 3 (A grade of 3 represents an MIC of less than 1 mg/L), respectively. In addition, the “MIC grade, A. fumigatus 210” value in assay [3] and in assay [9] was 3 (A grade of 3 represents an MIC of less than 1 mg/L) throughout. Moreover, the “MIC grade, A. fumigatus” value in assay [4] and in [10] was 3 (A grade of 3 represents an MIC of less than 1 mg/L) in each case. Also, the “MIC grade, A. flavus” value against Aspergillus flavus [5] and with Aspergillus flavus [11] was 2 (A grade of 2 represents an MIC of from 1 to 10 mg/L) each time. Moreover, the “MIC grade, A. terreus” value in the assay on Aspergillus terreus AT4 [6] and against Aspergillus terreus AT4 [12] was 3 (A grade of 3 represents an MIC of less than 1 mg/L) throughout.

In the case of `CC(=O)NCCn1c(C)cc(-c2ccccc2)c1C(=O)C(=O)Nc1ccc(N2CCN(c3cc(C)cc(C)n3)CC2)cc1` [Example 65, 2-[1-(2-Acetylamino-ethyl)-5-methyl-3-phenyl-1H-pyrrol-2-yl]-N-{4-[4-(4,6-dimethyl-pyridin-2-yl)-piperazin-1-yl]-phenyl}-2-oxo-acetamide], the MIC (in the assay on Aspergillus niger [1]; with Aspergillus terreus AT49 [2]; in assay [3]; in assay [4]; with Aspergillus flavus [5]; in the assay on Aspergillus terreus AT4 [6]) was over 10 µg/mL each time. Moreover, the MIC (in the assay on Aspergillus niger [7]; in the assay with Aspergillus terreus AT49 [8]; in assay [9]; in assay [10]; in the assay with Aspergillus flavus [11]; in the assay on Aspergillus terreus AT4 [12]) was over 10 µg/mL in each case.
